Measurements taken from PubChem BioAssay AID248 (DTP/NCI, 2004).
Several values for one entry are separate records, joined by “and”; a condition that tells them apart may be missing. Equal entries are not always repeated. Inconclusive results and toxic doses are left out. No stated cut-off is given here; in the data, active means T/C of 150% or more; inactive means T/C below 125%.

System: L1210 leukemia ip in BDF1 mice, survival T/C
Assay: NCI In Vivo Anticancer Drug Screen. Data for tumor model L1210 Leukemia (intraperitoneal) in B6D2F1 (BDF1) mice
Details: endpoint: mean survival time, higher = longer survival
How it was run: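 Transplantable tumor model; survival measured in treated vs vehicle control mice. Value = treated/control.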

[1] = dose: 50.0 mg/kg/injection, schedule: Q01DX009 (ip), vehicle: Klucel (hydroxypropylcellulose) (HPC)
[2] = dose: 100.0 mg/kg/injection, schedule: Q01DX009 (ip), vehicle: Klucel (hydroxypropylcellulose) (HPC)
[3] = dose: 200.0 mg/kg/injection, schedule: Q01DX009 (ip), vehicle: Klucel (hydroxypropylcellulose) (HPC)
[4] = dose: 100.0 mg/kg/injection, schedule: Q01DX009 (ip), vehicle: saline with Tween-80
[5] = dose: 100.0 mg/kg/injection, schedule: Q04DX003 (ip), vehicle: saline with Tween-80
[6] = dose: 200.0 mg/kg/injection, schedule: Q01DX009 (ip), vehicle: saline with Tween-80
[7] = dose: 200.0 mg/kg/injection, schedule: Q04DX003 (ip), vehicle: saline with Tween-80
[8] = dose: 400.0 mg/kg/injection, schedule: Q01DX009 (ip), vehicle: saline with Tween-80
[9] = dose: 400.0 mg/kg/injection, schedule: Q04DX003 (ip), vehicle: saline with Tween-80
[10] = dose: 100.0 mg/kg/injection, schedule: Q04DX003 (ip), vehicle: Klucel (hydroxypropylcellulose) (HPC)
[11] = dose: 200.0 mg/kg/injection, schedule: Q04DX003 (ip), vehicle: Klucel (hydroxypropylcellulose) (HPC)
[12] = dose: 400.0 mg/kg/injection, schedule: Q04DX003 (ip), vehicle: Klucel (hydroxypropylcellulose) (HPC)

Measured: T/C

COc1ccc([N+](=O)[O-])cc1NC(=O)Nc1c(C)n(C)n(-c2ccccc2)c1=O
inactive: [1] 108 % of control | [2] 105 % of control | [3] 97 % of control

CC(CCC(=O)O)(c1ccc(O)cc1)c1ccc(O)cc1
inactive: dose: 100.0 mg/kg/injection, schedule: Q04DX003 (ip), vehicle: other 99 % of control | dose: 200.0 mg/kg/injection, schedule: Q04DX003 (ip), vehicle: other 105 % of control | dose: 400.0 mg/kg/injection, schedule: Q04DX003 (ip), vehicle: other 97 % of control

COc1ccc([N+](=O)[O-])cc1NC(=O)CCCCCCCCC(=O)Nc1cc([N+](=O)[O-])ccc1OC
inactive: dose: 100.0 mg/kg/injection, schedule: Q04DX002 (ip), vehicle: saline 102 % of control | dose: 200.0 mg/kg/injection, schedule: Q04DX002 (ip), vehicle: saline 102 % of control | dose: 400.0 mg/kg/injection, schedule: Q04DX002 (ip), vehicle: saline 109 % of control

CC(=O)OCC(CCn1ccc(=O)[nH]c1=O)COC(C)=O
inactive: [4] 93 % of control | [5] 100 % of control | [6] 95 % of control | [7] 105 % of control | [8] 100 % of control | [9] 106 % of control

O=C(CCl)OC1CCCCC1
inactive: [4] 105 % of control | [6] 97 % of control

NC(N)=N/N=C(\c1ccc(F)cc1)C1CC1
inactive: dose: 15.0 mg/kg/injection, schedule: Q01DX Z (ip), vehicle: methylcellulose (MC) 94 % of control | dose: 15.0 mg/kg/injection, schedule: Q01DX Z (oral), vehicle: methylcellulose (MC) 110 % of control | dose: 30.0 mg/kg/injection, schedule: Q01DX Z (ip), vehicle: methylcellulose (MC) 95 % of control | dose: 30.0 mg/kg/injection, schedule: Q01DX Z (oral), vehicle: methylcellulose (MC) 105 % of control | dose: 60.0 mg/kg/injection, schedule: Q01DX Z (oral), vehicle: methylcellulose (MC) 96 % of control | dose: 120.0 mg/kg/injection, schedule: Q01DX Z (oral), vehicle: methylcellulose (MC) 104 % of control

COC(=O)NC1CC=CCC1I (stereo not drawn)
inactive: [5] 100 % of control | [7] 102 % of control | [9] 102 % of control

COc1ccc(Cl)cc1NC1=CC(c2ccc(Cl)cc2)OC1=O (stereo not drawn)
inactive: [5] 102 % of control | [7] 100 % of control | [9] 91 % of control

O=C(Cc1c[nH]c2ccccc12)N=Nc1c(O)[nH]c2ccccc12
inactive: dose: 100.0 mg/kg/injection, schedule: Q01DX001 (ip), vehicle: other 102 % of control | dose: 200.0 mg/kg/injection, schedule: Q01DX001 (ip), vehicle: other 101 % of control | dose: 400.0 mg/kg/injection, schedule: Q01DX001 (ip), vehicle: other 93 % of control

O=C(CCCCCCCC(=O)Nc1cc(C2=NCCN2)cc(C2=NCCN2)c1)Nc1cc(C2=NCCN2)cc(C2=NCCN2)c1
inactive: dose: 12.0 mg/kg/injection, schedule: Q01DX Z (ip), vehicle: carboxymethylcellulose (CMC) 105 % of control

O=C(Nc1ccc(Cl)cc1[N+](=O)[O-])Oc1cc2ccccc2cc1C(=O)Nc1ccccc1
inactive: [4] 100 % of control and 88 % of control | dose: 100.0 mg/kg/injection, schedule: Q04DX002 (ip), vehicle: saline with Tween-80 93 % of control and 94 % of control | [6] 86 % of control and 87 % of control | dose: 200.0 mg/kg/injection, schedule: Q04DX002 (ip), vehicle: saline with Tween-80 94 % of control and 101 % of control | [8] 93 % of control and 96 % of control | dose: 400.0 mg/kg/injection, schedule: Q04DX002 (ip), vehicle: saline with Tween-80 94 % of control and 90 % of control

O=C(Nc1cccnc1)Nc1ccc(Cl)c(Cl)c1
inactive: [10] 98 % of control | [11] 93 % of control | [12] 94 % of control

Cc1cc(N(C)C)nc(SCc2ccc(Cl)cc2Cl)n1
inactive: dose: 200.0 mg/kg/injection, schedule: Q01DX Z (ip), vehicle: methylcellulose (MC) 105 % of control

O=S(=O)(c1ccccc1)N1CCCCC1
inactive: [10] 100 % of control | [11] 97 % of control | [12] 100 % of control

CN=C(c1ccc(NC(=O)c2ccc(C(=O)Nc3ccc(C(=NC)N4CCOCC4)cc3)cc2)cc1)N1CCOCC1
inactive: dose: 0.9 mg/kg/injection, schedule: Q01DX Z (ip), vehicle: carboxymethylcellulose (CMC) 86 % of control | dose: 1.87 mg/kg/injection, schedule: Q01DX Z (ip), vehicle: carboxymethylcellulose (CMC) 91 % of control | dose: 3.75 mg/kg/injection, schedule: Q01DX Z (ip), vehicle: carboxymethylcellulose (CMC) 93 % of control | dose: 7.5 mg/kg/injection, schedule: Q01DX Z (ip), vehicle: carboxymethylcellulose (CMC) 91 % of control | dose: 15.0 mg/kg/injection, schedule: Q01DX Z (ip), vehicle: carboxymethylcellulose (CMC) 101 % of control

CS(C)=O.CS(C)=O.[Cl][Sn]([Cl])([Cl])[Cl]
inactive: dose: 25.0 mg/kg/injection, schedule: Q01DX009 (ip), vehicle: Klucel (hydroxypropylcellulose) (HPC) 95 % of control | [1] 90 % of control | [2] 106 % of control | [10] 95 % of control | dose: 150.0 mg/kg/injection, schedule: Q01DX009 (ip), vehicle: Klucel (hydroxypropylcellulose) (HPC) 104 % of control

O=c1c(Cl)c(C(Cl)(Cl)Cl)[nH]c2c(Cl)cc(Cl)cc12
inactive: dose: 6.25 mg/kg/injection, schedule: Q01DX009 (ip), vehicle: other 93 % of control | dose: 12.5 mg/kg/injection, schedule: Q01DX009 (ip), vehicle: other 107 % of control

CCCCCCCCCCC(=O)N(CCC)CCC
inactive: dose: 100.0 mg/kg/injection, schedule: Q01DX009 (ip), vehicle: carboxymethylcellulose (CMC) 97 % of control | dose: 100.0 mg/kg/injection, schedule: Q04DX002 (ip), vehicle: carboxymethylcellulose (CMC) 91 % of control | dose: 200.0 mg/kg/injection, schedule: Q01DX009 (ip), vehicle: carboxymethylcellulose (CMC) 93 % of control and 92 % of control | dose: 200.0 mg/kg/injection, schedule: Q04DX002 (ip), vehicle: carboxymethylcellulose (CMC) 93 % of control | dose: 400.0 mg/kg/injection, schedule: Q01DX009 (ip), vehicle: carboxymethylcellulose (CMC) 86 % of control | dose: 400.0 mg/kg/injection, schedule: Q04DX002 (ip), vehicle: carboxymethylcellulose (CMC) 88 % of control

O=C(OCC1OCOC(COC(=O)c2ccccc2)C(OC(=O)c2ccccc2)C1OC(=O)c1ccccc1)c1ccccc1 (stereo not drawn)
inactive: dose: 50.0 mg/kg/injection, schedule: Q04DX002 (ip), vehicle: saline with Tween-80 88 % of control

O=C(O)CCSCCSCCC(=O)O
inactive: [2] 95 % of control | [3] 90 % of control | dose: 400.0 mg/kg/injection, schedule: Q01DX009 (ip), vehicle: Klucel (hydroxypropylcellulose) (HPC) 100 % of control

CCS(=O)(=O)CS(=O)(=O)C(C)(C)C
inactive: dose: 100.0 mg/kg/injection, schedule: Q01DX001 (ip), vehicle: Klucel (hydroxypropylcellulose) (HPC) 98 % of control | dose: 200.0 mg/kg/injection, schedule: Q01DX001 (ip), vehicle: Klucel (hydroxypropylcellulose) (HPC) 91 % of control | dose: 400.0 mg/kg/injection, schedule: Q01DX001 (ip), vehicle: Klucel (hydroxypropylcellulose) (HPC) 94 % of control

Nc1ccnc(SCCCCc2ccccc2)n1
inactive: dose: 100.0 mg/kg/injection, schedule: Q04DX003 (ip), vehicle: gum acacia 90 % of control | dose: 200.0 mg/kg/injection, schedule: Q04DX003 (ip), vehicle: gum acacia 93 % of control | dose: 400.0 mg/kg/injection, schedule: Q04DX003 (ip), vehicle: gum acacia 90 % of control

CON1C(=O)c2ccccc2S1=O (stereo not drawn)
inactive: dose: 100.0 mg/kg/injection, schedule: Q04DX002 (ip), vehicle: Klucel (hydroxypropylcellulose) (HPC) 96 % of control | dose: 200.0 mg/kg/injection, schedule: Q04DX002 (ip), vehicle: Klucel (hydroxypropylcellulose) (HPC) 92 % of control

O=c1nccc[nH]1
inactive: dose: 100.0 mg/kg/injection, schedule: Q04DX003 (ip), vehicle: saline 97 % of control | dose: 200.0 mg/kg/injection, schedule: Q04DX003 (ip), vehicle: saline 97 % of control
